Reference: patent US20110092445A1, “Amyloid ß peptide analogues, oligomers thereof, processes for preparing and composi-tions comprising said analogues or oligomers, and their uses” (Abbott Laboratories, priority 2008, published 2011)
Bridges are numbered along the chain shown (N, C = ends). Where no end group is shown, it is not given here. The star is where a group is joined. Acm = CC(=O)NC*

Experiments:
[1] = tested on: globulomer-specific antibodies (mAb 5F7, mAb 7C6, rabbit polyclonal antiserum 5599); experiment: Direct ELISA, response to globulomer-specific antibodies; format: binding; settings: for display of the globulomer epitope: oligomers before thermolysin truncation, 5F7, 7C6, antiserum 5599; for reactivity of cross-linked oligomers to the globulomer-specific antibodies: after intra-molecular cross-linking, FIGS. 14-16, 18; for change in affinity to the globulomer-specific antibodies upon truncation with thermolysin: after thermolysin truncation versus untruncated oligomer
Description: (§1) Materials: Microtiterplates were Nunc Immuno Plate, Maxi-Sorb Surface, flat bottom, (Catalogue #439454). The conjugate (secondary antibody) was Donkey anti-mouse HRPO conjugate, Jackson Immuno Research, (Catalogue #715-035-150). The HRPO Substrate was 3,3′,5′5′-Tetramethylbenzidine Liquid substrate (TMB), Sigma, (Catalogue #T4444). Non-fat Dry Milk (NFDM), was from BioRad, (Catalogue #170-6404). All other chemicals were from conventional sources.
(§2) Buffers and solutions: PBST buffer: Sigma PBS made with 0.05% Tween 20. PBST with 0.5% BSA was made by dissolving […] BSA in 100 mL PBST. Blocking solution was 3% NFDM in PBST. Conjugate diluent was 1% NFDM in PBST. The coating buffer was 100 mM NaHCO3 pH8.2. The HRPO Stop Solution was 2 M H2SO4.
(§3) Coating the plates: The Aβ globulomer to be tested was diluted to 1.0 μg/mL in coating buffer. 100 μL were added to each well to be coated. Plate was sealed with sealing film and left at 4° C. overnight.
(§4) Plate Blocking: The coating solution was removed from the wells. Each well was optionally washed 2-3× with 150 μL of PBST. 300 μL of blocking solution were added (3% NFDM in PBST). Plate was covered with plate sealing film and incubated for ˜2 hrs at room temperature, with agitation.
(§5) Primary Antibody: The blocking solution was removed from the wells. Each well was optionally washed 2-3× with 150 μL of PBST. 100 μL of primary antibody solutions were added. For the full length N-Met Aβ(1-42) globulomer, solutions of 0.04 to 100 μg/mL of antibody 5F7 were used. The antibody was diluted using PBST with 0.5% BSA. The plate was covered with plate sealing film and incubated for ˜2 to 3 hrs at room temperature with agitation.
Secondary Antibody (HRPO Conjugate): The primary antibody solution was removed from the wells. Each well was washed 2-3× with 150 μL of PBST. 200 μL of secondary antibody (HRPO conjugate) solution diluted 1:5000 in PBST with 1% NFDM were added. The plate was covered with plate sealing film and incubated for ˜1 hr at room temperature with agitation.
Substrate Development: The conjugate solution was removed from the wells. Each well was washed 2-3× with 200 μL of PBST. 100 μL of HRPO substrate solution were added to each well. Color was allowed to develop under observation. It turned blue. The reaction was usually done in 5-10 minutes at room temperature. 50 μL of stop solution were added to each well. The blue color turned yellow. Absorbance at 450 nm was read using a microtiterplate reader within 30 min of addition of the stop solution.

[2] = tested on: globulomer-specific monoclonal antibody 5F7; experiment: Direct ELISA, binding of globulomer-specific mAb 5F7 to coated oligomer; design: species or system murine; settings: FIG. 3A; for binding of the globulomer-specific monoclonal antibody 5F7 (direct ELISA response): N-Met Aβ(1-42) globulomer compared with mutant oligomer
Description: as §1, §2, §3, §4, §5
Secondary Antibody (HRPO Conjugate): The primary antibody solution was removed from the wells. Each well was washed 2-3× with 150 μL of PBST. 200 μL of secondary antibody (HRPO conjugate) solution diluted 1:5000 in PBST with 1% NFDM were added. […]
Substrate Development: The conjugate solution was removed from the wells. […] Absorbance at 450 nm was read using a microtiterplate reader within 30 min of addition of the stop solution.

[3] = for homogeneity of oligomers in sedimentation velocity experiments / hydrodynamic properties relative to wild-type N-Met Aβ(1-42) (truncated) globulomer: FIG. 5A-5C; for hydrodynamic homogeneity after truncation at residue 20 by thermolysin: presence (FIG. 5B) and absence (FIG. 5C) of 0.05% SDS
Description: Samples were loaded into standard two-sector cells using sapphire windows. All samples were examined using either a 4-hole or an 8-hole rotor.
Conditions were as follows: temperature: 20° C., rotor speed: 42,000 rpm, interference data was collected, absorbance data was collected at 280 nm in continuous mode with a radial step size of 0.003 cm. One data point was collected per step (no signal averaging). Typically, 200 scans or less were collected over the course of no more than 9 hrs.
A continuous S distribution analysis (C(s) analysis) was done as implemented in Sedfit v8.9 (P. Schuck (2000), “Size distribution analysis of macromolecules by sedimentation velocity ultracentrifugation and Lamm equation modeling”, Biophysical Journal 78:1606-1619) to understand the overall heterogeneity of the samples. Both radial and time independent noise were fit and removed from the data using a maximal entropy algorithm.

Substance	display of the globulomer epitope [1]	change in affinity to the globulomer-specific antibodies upon truncation with thermolysin [1]	also measured
(17C(ACM), 34C(ACM)) Aβ(16-35) oligomer (KC(Acm)VFFAEDVGSNKGAIIGC(Acm)M; also: oligomer; UniProt P05067 687-706, looked up, variant L17C L34C) [3l]	not able to form oligomers that displayed the globulomer epitope		
(17K, 34C) N-Met Aβ(1-42) oligomer [example 3w]	display the globulomer epitope		
(17K, 34E) N-Met Aβ(1-42) oligomer [example 3x]	display the globulomer epitope		
Aβ(16-35)-amide oligomer (KLVFFAEDVGSNKGAIIGLM-NH2; also: oligomer; UniProt P05067 687-706, looked up, fragment) [example 3m]	not able to form oligomers that displayed the globulomer epitope		
Dissulfide stabilized (17C, 34C) N-Met Aβ(1-42) oligomer [example 2a]			binding of the globulomer-specific monoclonal antibody 5F7 (direct ELISA response) [2]: almost identical; display of the globulomer-specific epitope ([2]; mAb 5F7): still displays the globulomer-specific epitope; homogeneity of oligomers in sedimentation velocity experiments [3]: formed homogeneous oligomers; hydrodynamic properties relative to wild-type N-Met Aβ(1-42) (truncated) globulomer [3]: displayed better hydrodynamic properties
Disulfide-stabilized (17C, 34C) Aβ(12-42) oligomer (VHHQKCVFFAEDVGSNKGAIIGCMVGGVVIA; disulfide 6-23; also: oligomer; UniProt P05067 683-713, looked up, variant L17C L34C) [example 4k]	displayed the globulomer epitope		
Disulfide-stabilized (17C, 34C) Aβ(16-42) oligomer (KCVFFAEDVGSNKGAIIGCMVGGVVIA-OH; disulfide 2-19; also: oligomer; UniProt P05067 687-713, looked up, variant L17C L34C) [example 4s]	displayed the globulomer epitope		
EDC/NHS-linked (17K, 34E) N-Met Aβ(1-42) oligomer [example 4x]		expected increase in affinity	reactivity of cross-linked oligomers to the globulomer-specific antibodies [1]: still display the appropriate reactivity
MBS-linked (17K, 34C) N-Met Aβ(1-42) oligomer [example 4w2]		expected increase in affinity	reactivity of cross-linked oligomers to the globulomer-specific antibodies [1]: still display the appropriate reactivity
N-Met Aβ(1-42) globulomer [reference compound]			binding of the globulomer-specific monoclonal antibody 5F7 (direct ELISA response) [2]: almost identical; homogeneity of oligomers in sedimentation velocity experiments [3]: formed homogeneous oligomers; hydrodynamic homogeneity after truncation at residue 20 by thermolysin [3]: too heterogeneous to be examined
SIAB-linked (17K, 34C) N-Met Aβ(1-42) oligomer [example 4w3]		expected increase in affinity	reactivity of cross-linked oligomers to the globulomer-specific antibodies [1]: still display the appropriate reactivity
SMCC-linked (17K, 34C) N-Met Aβ(1-42) oligomer [example 4w1]		expected increase in affinity	reactivity of cross-linked oligomers to the globulomer-specific antibodies [1]: still display the appropriate reactivity
Thermolysin truncation of [(17C, 34C) Aβ(16-35)-amide, cyclic] oligomer [example 5o]		expected increase in affinity	
Thermolysin truncation of disulfide stabilized (17C, 34C) Aβ(12-42) oligomer [example 5k]		expected increase in affinity	
Thermolysin truncation of disulfide stabilized (17C, 34C) Aβ(16-42) oligomer [example 5s]		expected increase in affinity	
Thermolysin truncation of disulfide stabilized (17C, 34C) N-Met Aβ(1-42) oligomer [example 5y]			homogeneity of oligomers in sedimentation velocity experiments [3]: formed homogeneous oligomers; hydrodynamic properties relative to wild-type N-Met Aβ(1-42) (truncated) globulomer [3]: displayed better hydrodynamic properties; hydrodynamic homogeneity after truncation at residue 20 by thermolysin [3]: remains significantly more hydrodynamically homogeneous
[(17C, 34C) Aβ(16-35)-amide, cyclic] oligomer (KCVFFAEDVGSNKGAIIGCM-NH2; disulfide 2-19; also: oligomer; UniProt P05067 687-706, looked up, variant L17C L34C) [example 4o]	displayed the globulomer epitope		
